Source: ChEMBL document CHEMBL1201862, “PubChem BioAssay data set” (2004)
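Growth conditions: 96-well plates. Treatment: test compound, 48 hours, 5 concentrations. Analysis: linear interpolation between bracketing concentrations; unreached endpoints set to highest concentration. Here, GI50 denotes the concentration required for 50% inhibition of growth.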 Activity calls are given as the source filed them. Rule as the data show it: active = GI50 up to about 1.1 µM and inactive = higher.

Columns and labels:
Assay in all cases: DTP human tumour cell line panel, 48 h
[1] = tested on: Hs-578T
[2] = tested on: CAKI-1
[3] = tested on: NCI-H23
[4] = tested on: BT-549
[5] = tested on: OVCAR-3
[6] = tested on: SNB-19
[7] = tested on: SK-MEL-2
[8] = tested on: MOLT-4
[9] = tested on: KM12
[10] = tested on: T47D
[11] = tested on: SF-539
[12] = tested on: SR
[13] = tested on: MCF7
[14] = tested on: RXF 393
[15] = tested on: UACC-257
[16] = tested on: LOX IMVI
[17] = tested on: SN12C
[18] = tested on: SK-OV-3
[19] = tested on: SK-MEL-5
[20] = tested on: HCT-116
[21] = tested on: SK-MEL-28
[22] = tested on: PC-3
[23] = tested on: HCC 2998
[24] = tested on: MDA-N
[25] = tested on: OVCAR-5
[26] = tested on: NCI-H522
[27] = tested on: CCRF-CEM
[28] = tested on: UACC-62
[29] = tested on: ACHN
[30] = tested on: UO-31
[31] = tested on: EKVX
[32] = tested on: OVCAR-4
[33] = tested on: SF-268
[34] = tested on: K562
[35] = tested on: SW-620
[36] = tested on: NCI-H460
[37] = tested on: OVCAR-8
[38] = tested on: DU-145
[39] = tested on: U-251
[40] = tested on: A549
[41] = tested on: MDA-MB-435
[42] = tested on: HCT-15
[43] = tested on: HT-29
[44] = tested on: Malme-3M
[45] = tested on: 786-0
[46] = tested on: TK-10
[47] = tested on: HOP-62
[48] = tested on: IGROV-1
[49] = tested on: M14
[50] = tested on: NCI/ADR-RES
[51] = tested on: NCI-H226
[52] = tested on: HL-60
[53] = tested on: SNB-75
[54] = tested on: MDA-MB-231
[55] = tested on: SF-295
[56] = tested on: COLO 205
[57] = tested on: RPMI-8226
[58] = tested on: A498
[59] = tested on: HOP-92

O=P1(Cc2ccccc2)N(Cc2ccccc2)[C@@H]2CCCC[C@H]2N1Cc1ccccc1
GI50 [1]: 10.7 µM (inactive) | GI50 [2]: 10.4 µM (inactive) | GI50 [3]: 9.98 µM (inactive) | GI50 [4]: 17.7 µM (inactive) | GI50 [5]: 7.23 µM (inactive) | GI50 [6]: 10.6 µM (inactive) | GI50 [7]: 11.2 µM (inactive) | GI50 [8]: 2.72 µM (inactive) | GI50 [9]: 5.86 µM (inactive) | GI50 [10]: 5.48 µM (inactive) | GI50 [11]: 17 µM (inactive) | GI50 [12]: 2.69 µM (inactive) | GI50 [13]: 6.89 µM (inactive) | GI50 [14]: 9.51 µM (inactive) | GI50 [15]: 6.41 µM (inactive) | GI50 [16]: 12.2 µM (inactive) | GI50 [17]: 10.4 µM (inactive) | GI50 [18]: 13 µM (inactive) | GI50 [19]: 1.79 µM (inactive) | GI50 [20]: 6.73 µM (inactive) | GI50 [21]: 16.8 µM (inactive) | GI50 [22]: 4.18 µM (inactive) | GI50 [23]: 8.89 µM (inactive) | GI50 [24]: 6.82 µM (inactive) | GI50 [25]: 11.6 µM (inactive) | GI50 [26]: 3.97 µM (inactive) | GI50 [27]: 4.76 µM (inactive) | GI50 [28]: 7.74 µM (inactive) | GI50 [29]: 12.4 µM (inactive) | GI50 [30]: 6.52 µM (inactive) | GI50 [31]: 9.62 µM (inactive) | GI50 [32]: 3.01 µM (inactive) | GI50 [33]: 11.1 µM (inactive) | GI50 [34]: 5 µM (inactive) | GI50 [35]: 10.1 µM (inactive) | GI50 [36]: 8.07 µM (inactive) | GI50 [37]: 10 µM (inactive) | GI50 [38]: 12.6 µM (inactive) | GI50 [39]: 11.1 µM (inactive) | GI50 [40]: 6.17 µM (inactive) | GI50 [41]: 5.96 µM (inactive) | GI50 [42]: 9.91 µM | GI50 [43]: 5.32 µM (inactive) | GI50 [44]: 17.9 µM (inactive) | GI50 [45]: 13 µM (inactive) | GI50 [46]: 13.5 µM (inactive) | GI50 [47]: 15.5 µM (inactive) | GI50 [48]: 6.18 µM (inactive) | GI50 [49]: 4.34 µM (inactive) | GI50 [50]: 5.85 µM (inactive) | GI50 [51]: 2.2 µM (inactive) | GI50 [52]: 4.67 µM (inactive) | GI50 [53]: 6.79 µM (inactive) | GI50 [54]: 10.6 µM (inactive) | GI50 [55]: 6.59 µM (inactive) | GI50 [56]: 5.77 µM (inactive)

CCOC(=O)C1(Cc2ccc3c(c2)CCC3)Cc2cc3c(cc2C1)CCC3
GI50 [1]: 34.8 µM (inactive) | GI50 [2]: 45.7 µM (inactive) | GI50 [3]: 35.7 µM (inactive) | GI50 [4]: 90.4 µM (inactive) | GI50 [5]: 32.4 µM (inactive) | GI50 [6]: 36.7 µM (inactive) | GI50 [7]: 32.6 µM (inactive) | GI50 [8]: 11.5 µM (inactive) | GI50 [9]: 40.7 µM (inactive) | GI50 [57]: 14.6 µM (inactive) | GI50 [10]: 17.7 µM (inactive) | GI50 [58]: 37.5 µM (inactive) | GI50 [11]: 29.7 µM (inactive) | GI50 [12]: 23.9 µM (inactive) | GI50 [13]: 16.4 µM (inactive) | GI50 [15]: 23.7 µM (inactive) | GI50 [16]: 15.4 µM (inactive) | GI50 [17]: 27.8 µM (inactive) | GI50 [18]: 24.7 µM (inactive) | GI50 [20]: 25.5 µM (inactive) | GI50 [21]: 39.4 µM (inactive) | GI50 [22]: 21.9 µM (inactive) | GI50 [23]: 22.6 µM (inactive) | GI50 [24]: 37 µM (inactive) | GI50 [25]: 45.6 µM (inactive) | GI50 [26]: 25.1 µM (inactive) | GI50 [27]: 13.9 µM (inactive) | GI50 [28]: 30.6 µM (inactive) | GI50 [29]: 33.7 µM (inactive) | GI50 [30]: 49 µM (inactive) | GI50 [31]: 47.6 µM (inactive) | GI50 [32]: 28 µM (inactive) | GI50 [33]: 53.2 µM (inactive) | GI50 [34]: 15.2 µM (inactive) | GI50 [35]: 23.9 µM (inactive) | GI50 [36]: 27.5 µM (inactive) | GI50 [37]: 42.5 µM (inactive) | GI50 [38]: 53 µM (inactive) | GI50 [39]: 32.3 µM (inactive) | GI50 [40]: 35.9 µM (inactive) | GI50 [41]: 35.7 µM (inactive) | GI50 [42]: 32 µM | GI50 [43]: 6.46 µM (inactive) | GI50 [44]: 27.2 µM (inactive) | GI50 [45]: 29.6 µM (inactive) | GI50 [46]: > 100 µM (inactive) | GI50 [47]: 32.9 µM (inactive) | GI50 [48]: 46.8 µM (inactive) | GI50 [49]: 21.5 µM (inactive) | GI50 [50]: 78.5 µM (inactive) | GI50 [51]: 31.6 µM (inactive) | GI50 [52]: > 100 µM (inactive) | GI50 [53]: 75.5 µM (inactive) | GI50 [54]: 28.1 µM (inactive) | GI50 [55]: 25.1 µM (inactive) | GI50 [56]: 33.9 µM (inactive)

CCC1CC(=O)N(SCC(N)C(=O)O)C1=O (centres undefined)
GI50 [1]: > 100 µM (inactive) | GI50 [2]: > 100 µM (inactive) | GI50 [3]: > 100 µM (inactive) | GI50 [4]: > 100 µM (inactive) | GI50 [5]: > 100 µM (inactive) | GI50 [6]: > 100 µM (inactive) | GI50 [7]: > 100 µM (inactive) | GI50 [9]: > 100 µM (inactive) | GI50 [57]: > 100 µM (inactive) | GI50 [10]: > 100 µM (inactive) | GI50 [58]: > 100 µM (inactive) | GI50 [11]: > 100 µM (inactive) | GI50 [12]: > 100 µM (inactive) | GI50 [13]: > 100 µM (inactive) | GI50 [14]: > 100 µM (inactive) | GI50 [15]: > 100 µM (inactive) | GI50 [16]: > 100 µM (inactive) | GI50 [17]: > 100 µM (inactive) | GI50 [18]: > 100 µM (inactive) | GI50 [19]: > 100 µM (inactive) | GI50 [20]: > 100 µM (inactive) | GI50 [21]: > 100 µM (inactive) | GI50 [22]: > 100 µM (inactive) | GI50 [24]: > 100 µM (inactive) | GI50 [25]: > 100 µM (inactive) | GI50 [26]: > 100 µM (inactive) | GI50 [27]: > 100 µM (inactive) | GI50 [28]: > 100 µM (inactive) | GI50 [29]: > 100 µM (inactive) | GI50 [30]: > 100 µM (inactive) | GI50 [31]: > 100 µM (inactive) | GI50 [32]: > 100 µM (inactive) | GI50 [33]: > 100 µM (inactive) | GI50 [34]: > 100 µM (inactive) | GI50 [35]: > 100 µM (inactive) | GI50 [36]: > 100 µM (inactive) | GI50 [37]: > 100 µM (inactive) | GI50 [38]: > 100 µM (inactive) | GI50 [39]: > 100 µM (inactive) | GI50 [40]: > 100 µM (inactive) | GI50 [41]: > 100 µM (inactive) | GI50 [42]: > 100 µM | GI50 [43]: > 100 µM (inactive) | GI50 [59]: > 100 µM (inactive) | GI50 [44]: > 100 µM (inactive) | GI50 [45]: > 100 µM (inactive) | GI50 [46]: > 100 µM (inactive) | GI50 [47]: > 100 µM (inactive) | GI50 [48]: > 100 µM (inactive) | GI50 [49]: > 100 µM (inactive) | GI50 [50]: > 100 µM (inactive) | GI50 [51]: > 100 µM (inactive) | GI50 [52]: > 100 µM (inactive) | GI50 [53]: > 100 µM (inactive) | GI50 [54]: > 100 µM (inactive) | GI50 [55]: > 100 µM (inactive) | GI50 [56]: > 100 µM (inactive)
